This is an account of results in patent publication US8834423B2, “Dissolvable microneedle arrays for transdermal delivery to human skin” (University of Pittsburgh—of the Commonwealth System of …, priority 2009, dated 2014).

The test system of this test is epidermal cells. The following applies: 5 mg/g of CMC, pyramidal array applied 5 minutes, 72 hours of exposure. The method, then:
This is a therapeutically relevant concentration based on the area of skin targeted, yet well below levels associated with systemic toxicities. […] Arrays and residual material were removed 5 minutes after application, and after 72 hours of exposure, culture living skin explants were cryo-sectioned and fixed.

For the molecule `O=P1(N(CCCl)CCCl)NCCCO1` (stereo not shown) [CYTOXAN, cyclophosphamide], the “apoptosis (TUNEL) in skin sections” value was “extensive apoptosis of epidermal cells”.
